The target of one assay is FGFR4 (Homo sapiens, UniProt P22455). Description: In vitro biochemical kinase analysis of FGFR4 (HTRF KinEASE-TK). As to conditions: HTRF kinase assay. The method, then:
In Vitro Biochemical Kinase Analysis of FGFR4
FGFR4 protein kinase detection kit was purchased from Cisbio (HTRF KinEASE-TK kit). Prepare 1× kinase reaction buffer. Transfer 10 nL of a diluted compound to each well of a reaction plate (784075, Greiner) with an Echo 550, and seal the plate with sealing film. The reaction plate was centrifuged at 1000 g for 1 minute. Prepare 2×FGFR4 using 1× kinase reaction buffer, add 5 μL of kinase to each well of the reaction plate, seal the plate, centrifuge at 1000 g for 30 seconds, and incubate it at room temperature for 10 minutes. Prepare a mixture of 2×TK-substrate-biotin and ATP using 1× kinase reaction buffer, add 5 μL of TK-substrate-biotin/ATP mixture to the reaction plate, seal the plate with sealing film, centrifuge at 1000 g for 30 seconds, and react at room temperature for 40 minutes. Prepare 2×Sa-XL 665 and TK-antibody-Cryptate mixture using HTRF detection buffer, add 10 μL Sa-XL 665 and TK-antibody-Cryptate mixture to each well, centrifuge at 1000 g for 30 seconds, and react at room temperature for 1 hour. Envision 2104 read fluorescence signals at 615 nm (Cryptate) and at 665 nm (XL665). IC50 of the compound was calculated using the GraphPad nonlinear fitting formula.
(In general: TR-FRET usually uses a lanthanide donor and a delayed reading to cut background.)

The next assay has as its system Hep 3B hepatoma cells. Description: In vitro cell proliferation assay (CellTiter-Glo, CTG), Hep 3B. The format is cell-based, human. The note with it: Hep 3B cells. The procedure:
(§1) In Vitro Cell Proliferation Assay of FGFR4 (CellTiter-Glo Luminescent Cell Viability Assay, CTG Assay)
(§2) Hep 3B hepatoma cells were purchased from Cell Resource Center of Peking Union College, and HuH-7 hepatoma cells were purchased from Shanghai Biological Technology Co., Ltd. enzyme research. The cells were prepared at a concentration of 3×10^4/mL, which was then added with 100 μL to each well of a 96-well transparent flat-bottom black-walled plate to make 3000 cells per well. Incubate overnight at 37° C. in 5% CO2 incubator. Dilute a compound and add it to the wells having the cells, then add cell culture medium to 200 μL per well. Put in CO2 incubator for incubation. After 96 hours, 100 μL of culture medium was removed from each well, 100 μL of CTG was added, and the 96-well plate was placed on a shaker for 10 minutes, and placed in the shade at room temperature for 45 minutes. Data was read out by SoftMax Pro i3X Microplate Reader of MD, analyzed by the software GraphPad Prism 5.0, and S-shaped dose-response curve was drawn, then the EC50 values were calculated.

For a further assay, the system named is HuH-7 hepatoma cells. Description: In vitro cell proliferation assay (CellTiter-Glo, CTG), HuH-7. The class given is cell-based. The note with it: HuH-7 cells. The method, then: as §1, §2

Here are results for 23 compounds from patent US12344611B2, “Bridged cycloformylpyridine derivatives and uses thereof” (BroadenBio Co., Ltd., priority 2019, dated 2025).

Chain of FGFR4 (P22455 22-802): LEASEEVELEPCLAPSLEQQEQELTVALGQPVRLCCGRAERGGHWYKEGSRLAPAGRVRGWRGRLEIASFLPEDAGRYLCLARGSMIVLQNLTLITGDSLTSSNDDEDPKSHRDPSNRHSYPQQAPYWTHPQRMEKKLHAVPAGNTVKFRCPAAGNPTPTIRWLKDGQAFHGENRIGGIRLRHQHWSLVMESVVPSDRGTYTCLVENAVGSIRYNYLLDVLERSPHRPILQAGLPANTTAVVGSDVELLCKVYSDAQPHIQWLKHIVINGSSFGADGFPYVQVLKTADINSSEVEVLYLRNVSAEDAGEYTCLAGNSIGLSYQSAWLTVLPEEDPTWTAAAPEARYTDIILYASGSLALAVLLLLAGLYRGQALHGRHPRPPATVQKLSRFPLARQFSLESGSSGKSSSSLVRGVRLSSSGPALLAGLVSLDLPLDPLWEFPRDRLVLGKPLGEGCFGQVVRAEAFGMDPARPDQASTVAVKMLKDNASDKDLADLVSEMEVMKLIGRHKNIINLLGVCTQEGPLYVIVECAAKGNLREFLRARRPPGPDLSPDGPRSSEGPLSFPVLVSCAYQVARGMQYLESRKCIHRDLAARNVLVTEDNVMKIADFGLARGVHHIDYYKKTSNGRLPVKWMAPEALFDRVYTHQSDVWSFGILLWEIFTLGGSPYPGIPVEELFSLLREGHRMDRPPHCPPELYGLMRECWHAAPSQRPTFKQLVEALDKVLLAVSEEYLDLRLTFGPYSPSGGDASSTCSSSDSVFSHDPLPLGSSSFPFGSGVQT

Take `COC1CCCC1Nc1cc(NC(=O)N2c3nc(C=O)c(CN4CCN(C)CC4=O)cc3C3(F)CC2C3)ncc1C#N` (single isomer, unassigned) [Compound 12-P1, N-(5-cyano-4-(((cis)-2-methoxycyclopentyl)amino)pyridin-2-yl)-4-fluoro-7-formyl-64(4-methyl-2-oxopiperazin-1-yl)methyl)-3,4-dihydro-2,4-methylene-1,8-naphthyridine-1(2H)-carboxamide]: the IC50 (commonly the concentration that gives 50% inhibition) at FGFR4 was determined as 2.1 nM. The EC50 – broadly, the concentration at which the effect is half-maximal – is 8.6 nM in the assay with Hep 3B hepatoma cells (96 hours) and 0.9 nM in the assay on HuH-7 hepatoma cells (96 hours).
For `COC1CCCC1Nc1cc(NC(=O)N2c3nc(C=O)c(CN4CCN(C)CC4=O)cc3C3(F)CC2C3)ncc1C#N` (single isomer, unassigned) [Compound 12-P2, N-(5-cyano-4-(((cis)-2-methoxycyclopentyl)amino)pyridin-2-yl)-4-fluoro-7-formyl-64(4-methyl-2-oxopiperazin-1-yl)methyl)-3,4-dihydro-2,4-methylene-1,8-naphthyridine-1(2H)-carboxamide], the IC50 against FGFR4 was determined as 10.9 nM. Also, the EC50 in the assay on Hep 3B hepatoma cells (96 hours) worked out at 39 nM; in the assay with HuH-7 hepatoma cells (96 hours) it was 95.2 nM.
With `COCCNc1cc(NC(=O)N2c3nc(C=O)ccc3C3(F)CC2C3)ncc1C#N` [Compound 1, N-(5-cyano-4-((2-methoxyethyl)amino)pyridin-2-yl)-4-fluoro-7-formyl-3,4-dihydro-2,4-methylene-1,8-naphthyridine-1(2H)-carboxamide], half-maximal inhibition at FGFR4 (IC50) was put at 0.4 nM. Also, the EC50 in the assay on Hep 3B hepatoma cells (Homo sapiens, Hep3B, 96 h) worked out at 15.1 nM; in the assay on HuH-7 hepatoma cells (Homo sapiens, Huh-7, 96 h), 62 nM.
Taken in the same sequence, the figures for `COCCNc1cc(NC(=O)N2c3nc(C=O)ccc3C3(O)CC2C3)ncc1C#N` [Compound 2, N-(5-cyano-4-((2-methoxyethyl)amino)pyridin-2-yl)-7-formyl-4-hydroxy-3,4-dihydro-2,4-methylene-1,8-naphthyridine-1(2H)-carboxamide] were 2.2 nM, 8.1 nM and 52 nM.
The corresponding values for `COCCNc1cc(NC(=O)N2c3nc(C=O)ccc3C3(OC)CC2C3)ncc1C#N` [Compound 3] are 1.6 nM, 13.4 nM and 42 nM.
The corresponding values for `COCCNc1cc(NC(=O)N2c3nc(C=O)c(CN4CCN(C)CC4=O)cc3C3(O)CC2C3)ncc1C#N` [Compound 5, N-(5-cyano-4-((2-methoxyethyl)amino)pyridin-2-yl)-7-formyl-4-hydroxy-6-((4-methyl-2-oxopiperazin-1-yl)methyl)-3,4-dihydro-2,4-methylene-1,8-naphthyridine-1(2H)-carboxamide] are 1.8 nM, 27 nM and 49 nM.
For the compound `COC[C@@H](C)Nc1cc(NC(=O)N2c3nc(C=O)c(CN4CCN(C)CC4=O)cc3C3(F)CC2C3)ncc1C#N` [Compound 6, (R)—N-(5-cyano-4-((1-methoxyprop-2-yl)amino)pyridin-2-yl)-4-fluoro-7-formyl-6-((4-methyl-2-oxopiperazin-1-yl)methyl)-3,4-dihydro-2,4-methylene-1,8-naphthyridine-1(2H)-carboxamide], at FGFR4, it took 2.1 nM to reach half-maximal inhibition (IC50). In addition, the concentration for a half-maximal effect (EC50) with Hep 3B hepatoma cells (Homo sapiens, Hep3B, 96 h) was 3.3 nM; in the assay on HuH-7 hepatoma cells (Homo sapiens, Huh-7, 96 h), 5.9 nM.
Taken in the same sequence, the figures for `COCCNc1cc(NC(=O)N2c3nc(C=O)c(CN4CCN(C)CC4)cc3C3(F)CC2C3)ncc1C#N` [Compound 7] were 5.1 nM, 669 nM and over 1000 nM.
Taken in the same sequence, the figures for `COCCNc1cc(NC(=O)N2c3nc(C=O)c(CN(C)C(=O)CN(C)C)cc3C3(F)CC2C3)ncc1C#N` [Compound 8] were 2.6 nM, 11.8 nM and 28 nM.
The corresponding values for `COCCOc1cc(NC(=O)N2c3nc(C=O)c(CN4CCN(C)CC4=O)cc3C3(F)CC2C3)ncc1C#N` [Compound 9] are 4.9 nM, 58 nM and 71 nM.
As for `CN1CCN(Cc2cc3c(nc2C=O)N(C(=O)Nc2cc(NC4CCOC4)c(C#N)cn2)C2CC3(F)C2)C(=O)C1` (stereo not drawn) [Compound 10, N-(5-cyano-4-((tetrahydrofuran-3-yl)amino)pyridin-2-yl)-4-fluoro-7-formyl-6-((4-methyl-2-oxopiperazin-1-yl)methyl)-3,4-dihydro-2,4-methylene-1,8-naphthyridine-1(2H)-carboxamide], 3.8 nM corresponded to half-maximal inhibition against FGFR4 (IC50). For the same compound, the 50% effective concentration (EC50) in the assay on Hep 3B hepatoma cells (Homo sapiens, Hep3B, 96 h) is 10 nM; in the assay on HuH-7 hepatoma cells (Homo sapiens, Huh-7, 96 h), 20 nM.
The corresponding values for `COCCNc1cc(NC(=O)N2c3nc(C=O)c(CN4CCOCC4=O)cc3C3(F)CC2C3)ncc1C#N` [Compound 13] are 6.9 nM, 12.6 nM and 74 nM.
The corresponding values for `COCCNc1cc(NC(=O)N2c3nc(C=O)c(CN4CCCCOC4=O)cc3C3(F)CC2C3)ncc1C#N` [Compound 14] are 3.3 nM, 7.8 nM and 28 nM.
Taken in the same sequence, the figures for `CN1CCN(Cc2cc3c(nc2C=O)N(C(=O)Nc2ccc(C(F)(F)F)cn2)C2CC3(F)C2)C(=O)C1` [Compound 16, N-(5-(trifluoromethyl)pyridin-2-yl)-4-fluoro-7-formyl-6-((4-methyl-2-oxopiperazin-1-yl)methyl)-3,4-dihydro-2,4-methylene-1,8-naphthyridine-1(2H)-carboxamide] were 23.2 nM, 638 nM and over 1000 nM.
`COCCNc1cc(NC(=O)N2c3nc(C=O)c(CN4CCN(C)CC4=O)cc3C3CC2C3)ncc1C#N` [Compound 18, N-(5-cyano-4-((2-methoxyethyl)amino)pyridin-2-yl)-7-formyl-6-((4-methyl-2-oxopiperazin-1-yl)methyl)-3,4-dihydro-2,4-methylene-1,8-naphthyridine-1(2H)-carboxamide] gave a half-inhibitory concentration (IC50) against FGFR4 of 2.5 nM. In addition, the EC50 amounted to 5.6 nM in the assay on Hep 3B hepatoma cells (Homo sapiens, Hep3B, 96 h) and 15.1 nM with HuH-7 hepatoma cells (Homo sapiens, Huh-7, 96 h).
Taken in the same sequence, the figures for `CCc1cc2c(nc1C=O)N(C(=O)Nc1cc(NCCOC)c(C#N)cn1)C1CC2(F)C1` [Compound 21] were 2.1 nM, 15.8 nM and 28.4 nM.
Taken in the same sequence, the figures for `COCCOCCNc1cc(NC(=O)N2c3nc(C=O)ccc3C3(OC)CC2C3)ncc1C#N` [Compound 22, N-(5-cyano-4-((2-(2-methoxyethoxy)ethyl)amino)pyridin-2-yl)-7-formyl-4-methoxy-3,4-dihydro-2,4-methylene-1,8-naphthyridine-1(2H)-carboxamide] were 4.7 nM, 125 nM and 125 nM.
Taken in the same sequence, the figures for `COC[C@@H](C)Nc1cc(NC(=O)N2c3nc(C=O)c(CN4CCN(C)CC4=O)cc3C3CC2C3)ncc1C#N` [Compound 24] were 0.6 nM, 1.4 nM and 1.7 nM.
On FGFR4, `COCCOc1cc(NC(=O)N2c3nc(C=O)c(CN4CCN(C)CC4=O)cc3C3CC2C3)ncc1C#N` [Compound 25, N-(5-cyano-4-(methoxyethoxy)pyridin-2-yl)-7-formyl-6-((4-methyl-2-oxopiperazin-1-yl)methyl)-3,4-dihydro-2,4-methylene-1,8-naphthyridine-1(2H)-carboxamide] returned a half-inhibitory concentration (IC50) of 2.5 nM. The EC50 in the assay on Hep 3B hepatoma cells (Homo sapiens, Hep3B, 96 h) came out at 19.3 nM; in the assay on HuH-7 hepatoma cells (Homo sapiens, Huh-7, 96 h), 25.4 nM.
The corresponding values for `COCCNc1cc(NC(=O)N2c3nc(C=O)c(CN4CCOCC4=O)cc3C3CC2C3)ncc1C#N` [Compound 27, N-(5-cyano-4-((2-methoxyethyl)amino)pyridin-2-yl)-7-formyl-6-((3-oxomorpholinyl)methyl)-3,4-dihydro-2,4-methylene-1,8-naphthyridine-1(2H)-carboxamide] are 1.4 nM, 6.7 nM and 9.7 nM.
The corresponding values for `COCCNc1cc(NC(=O)N2c3nc(C=O)c(CN4CCCCOC4=O)cc3C3CC2C3)ncc1C#N` [Compound 28] are 1.1 nM, 7.2 nM and 6.9 nM.
The corresponding values for `COCCNc1cc(NC(=O)N2c3nc(C=O)ccc3C3(OCCN(C)C)CC2C3)ncc1C#N` [Compound 29, N-(5-cyano-4-((2-methoxyethyl)amino)pyridin-2-yl)-4-(2-(dimethylamino)ethoxy)-7-formyl-3,4-dihydro-2,4-methylene-1,8-naphthyridine-1(2H)-carboxamide] are 1.1 nM, 1.2 nM and 0.2 nM.
With `COCCNc1cc(NC(=O)N2c3nc(C=O)ccc3C3(NC(=O)C4CCN(C)CC4)CC2C3)ncc1C#N` [Compound 31], at FGFR4, inhibition was half-maximal at 1.1 nM (IC50). For the same compound, the EC50 was 5.5 nM in the assay with Hep 3B hepatoma cells (Homo sapiens, Hep3B, 96 h) and 4.5 nM in the assay on HuH-7 hepatoma cells (Homo sapiens, Huh-7, 96 h).
